Data as given in US20220211858A1, “TUBULAR SUPRAMOLECULAR POLYMERS” (priority 2019, published 2022).

What was measured:
[1] = tested on: U87 MG human brain cancer cells; conditions: 48 h incubation, SRB, CPT concentration
Procedure: The human brain cancer cell line U87 MG was a generous gift from Dr. Wirtz (ChemBE, JHU). DMEM (Invitrogen) containing 10% fetal bovine serum (FBS, Invitrogen) and 1% antibiotics (Invitrogen) was used for the culture of the U87 MG cells. Cancer cells were incubated at 37° C. in a humidified incubator (Oasis, Caron, Marietta, Ohio, USA) with an atmosphere of 5% CO2. […] U87 MG cells were seeded onto 96-well plates (5000 cells/well) and allowed to attach overnight. […] The stock solutions were then diluted with fresh medium to achieve final CPT concentrations of 0.1, 1, 10, 100, 500, 1000, 5000 and 10000 nM. After dilution, the nanotube-containing media were used to incubate cells immediately. Medium containing the same concentration of free CPT ranging from 0.1 to 10000 nM was also used to incubate the cells, with non-treated cells (solvent only) as the control group. In addition, irinotecan at the concentration of 0.1, 1, 5, 10, 50, 100 and 500 μM was employed as a second control. After 48 h incubation, the cell viability was evaluated using the SRB method according to the manufacturer's protocols (TOX-6, Sigma, St. Louis, Mo.).

[2] = Maximum tolerated dose (MTD) dose escalation study; parameters: species or system athymic nude mice; conditions: female, athymic nude, mouse, in vivo, intravenous, three doses, four days a dose; ½ of single-injection MTD; read-out: MTD of multiple injections
[3] = tested on: human glioblastoma U87 MG cells; assay: Antitumor efficacy study for systemic delivery, subcutaneous U87 MG tumor; format: in vivo, athymic nude mice; conditions: for mean tumor volume: three weeks after treatment
Procedure: A total of 2×10^6 human glioblastoma U87 MG cells were subcutaneously injected into the right shoulder of athymic nude mice (8-9 weeks old). The mice were used for the efficacy study after three to four weeks when the tumor had reached about 190-250 mm^3 in size. […]. Water insoluble free CPT was dissolved/suspended in a mixture of DMSO/ethanol/PEG-400/water (1:1:2:1). CPT (4.5 mg/kg) and irinotecan (60 mg/kg) were administered by intraperitoneal injection, while freshly prepared TT 1 solutions of various doses were administered intravenously by tail vein injection every 4 days for a total of three doses (days 1, 5, and 9). […]. Tumor volumes were measured and recorded every other day. The body weights were measured and recorded every day or every other day. The tumor volume was determined by measuring the tumor in two dimensions with calipers and using the formula “tumor volume=(length×width^2)/2”. Each animal was euthanized once the tumor volume reached the predetermined end point size of 2000 mm^3.

[4] = Encapsulation of hydrophobic dyes and paclitaxel in TT 1 nanotubes; format: physicochemical
Procedure: A 300 μM in water stock solution of TT 1 prodrug was prepared and aged overnight to form nanotubes. Hydrophobic dyes, such as Coumarin 6 (C6), Nile Red, Rose Bengal lactone (Rose), and IR 780 iodide (IR 780), were dissolved in acetonitrile at a concentration of 600 μM (FIG. 18). To perform the dye encapsulation experiments, 400 μL of the pre-formed nanotube solution and 200 μL of the corresponding dye solution in acetonitrile were mixed together to make a final solution of 600 μL (H2O/MeCN=2:1, v/v) in which the concentration of both prodrug and dye was 200 μM (prodrug/dye=1:1, mol/mol). The resulting mixed nanotube and dye solution was aged overnight to allow the penetration of dye molecules into the nanotube structures and then directly lyophilized to fully remove all the solvents. Next, the lyophilized powder was reconstituted to a final prodrug concentration of 200 μM by the addition of 600 μL of water and vortexing for 60 s. The solutions were aged for at least 6 h before being centrifuged (6000 rpm, 5 min) to remove any precipitated free dye. The supernatant was collected for further study. The dye loading capacity was calculated from the percentage of dye in the supernatant to the sum of encapsulated dye and added prodrugs. To get a higher resolution of dye-doped TT 1 solution, the solutions imaged in FIG. 4A were concentrated to a concentration of 800 μM.
In addition to functional dye molecules, the hydrophobic drug paclitaxel (PTX) was also used as a model compound to dope the TT 1 nanotubes, following the procedure described in the paragraph describing CD measurements of TT solutions above. After encapsulation, analytical HPLC was used to analyze the components of drug-doped nanotubes, monitoring the absorption at 220 nm. […] The concentrations of both nanotube and PTX were determined by comparing the area under the curve of each component with its standard calibration curve, yielding an encapsulation efficiency around 11%. The CD spectrum of PTX-doped nanotube was also recorded, showing a slight decrease in intensity compared with a pure nanotube solution at the same concentration (FIG. 17B).

CC[C@]1(OC(=O)OCCSSC[C@@H](NC(C)=O)C(=O)N[C@@H](CCCCNC(=O)[C@@H](CSSCCOC(=O)O[C@]2(CC)C(=O)OCc3c2cc2n(c3=O)Cc3cc4ccccc4nc3-2)NC(C)=O)C(=O)N[C@@H](CCCCNC(=O)CCOCCOCCOCCOCCOC)C(=O)N[C@@H](CCCCNC(=O)CCOCCOCCOCCOCCOC)C(N)=O)C(=O)OCc2c1cc1n(c2=O)Cc2cc3ccccc3nc2-1 [TT 1]
IC50 [1]: 149 nM
MTD [2]: 12 mg/kg
median survival ([3]; TT 1 4.5 mg/kg (CPT equivalent) i.v. days 1, 5, 9): 23 days
tumor volume ([3]; TT 1 4.5 mg/kg, up to 15 days): 417 mm^3
survival of four out of five mice ([3]; TT 1 9 mg/kg): up to 37 d
median survival ([3]; TT 1 9 mg/kg i.v. days 1, 5, 9): 37 days
mean tumor volume ([3]; TT 1 9 mg/kg): 94 mm^3
survival of four out of five mice ([3]; TT 1 15 mg/kg): ≤ 43 days
median survival ([3]; TT 1 15 mg/kg i.v. days 1, 5, 9): 43 days
mean tumor volume ([3]; TT 1 15 mg/kg): 59 mm^3
dye loading content ([4]; Coumarin 6 (C6) in TT 1 assemblies): 4.5%
dye loading content ([4]; IR-780 in TT 1 assemblies): 10.3%
dye loading content ([4]; Nile Red in TT 1 assemblies): 4.4%
dye loading content ([4]; Rose Bengal lactone in TT 1 assemblies): 14.8%
